Assays:
Type in all cases: in vivo
[1] = tested on: Anopheles stephensi (Indian malaria mosquito); test: Activity against Anopheles stephensi, dry deposit in tissue culture plates (Example B11); conditions: 200 ppm in ethanol, adult females, after 48 h and/or 24 h
Protocol: Example B11: Activity Against Anopheles stephensi (Indian Malaria Mosquito)
Test solutions, at an application rate of 200 ppm in ethanol, were applied to 12 well tissue culture plates. Once the deposits were dry, five, two to five day old adult female Anopheles stephensi were added to each well, and sustained with a 10% sucrose solution in a cotton wool plug. Assessment of knockdown was made one hour after introduction, and mortality was assessed at 24 and 48 hours after introduction. The following compounds gave at least 80% control of Anopheles stephensi after 48 h and/or 24 h: P1.14.

[2] = tested on: Plutella xylostella (diamond back moth); test: Activity against Plutella xylostella, artificial diet (Example B2); conditions: 120 h, L2 larvae on artificial diet, 5 days after infestation, read-out: effect in at least one of the two categories (mortality or growth inhibition)
Protocol: Example B2: Activity Against Plutella xylostella (Diamond Back Moth)
24-well microtiter plates with artificial diet were treated with aqueous test solutions prepared from 10′000 ppm DMSO stock solutions by pipetting. After drying, the plates were infested with L2 larvae (10 to 15 per well). The samples were assessed for mortality and growth inhibition in comparison to untreated samples 5 days after infestation. The following compounds gave an effect of at least 80% in at least one of the two categories (mortality or growth inhibition) at an application rate of 200 ppm: P1.3, P1.6, P1.7, P1.8, P1.9, P1.13, P1.14, P1.15, P1.16, P1.17 and P1.18.

[3] = tested on: Diabrotica balteata (corn root worm); test: Activity against Diabrotica balteata, maize sprouts (Example B3); conditions: 96 h, L2 larvae on maize sprouts, 4 days after infestation, read-out: effect in at least one of the two categories (mortality or growth inhibition)
Protocol: Example B3: Activity Against Diabrotica balteata (Corn Root Worm)
Maize sprouts, placed on an agar layer in 24-well microtiter plates were treated with aqueous test solutions prepared from 10′000 ppm DMSO stock solutions by spraying. After drying, the plates were infested with L2 larvae (6 to 10 per well). The samples were assessed for mortality and growth inhibition in comparison to untreated samples 4 days after infestation. The following compounds gave an effect of at least 80% in at least one of the two categories (mortality or growth inhibition) at an application rate of 200 ppm: P1.1, P1.2, P1.6, P1.7, P1.8, P1.9, P1.10, P1.13, P1.14, P1.15, P1.16, P1.17 and P1.18.

[4] = tested on: Spodoptera littoralis (Egyptian cotton leaf worm); test: Activity against Spodoptera littoralis, cotton leaf disc spray (Example B1); conditions: foliar, 72 h, L1 larvae on cotton leaf discs, 3 days after infestation, read-out: control in at least one of the three categories (mortality, anti-feedancy or growth inhibition)
Protocol: Example B1: Activity Against Spodoptera littoralis (Egyptian Cotton Leaf Worm)
Cotton leaf discs were placed on agar in 24-well microtiter plates and sprayed with aqueous test solutions prepared from 10′000 ppm DMSO stock solutions. After drying the leaf discs were infested with five L1 larvae. The samples were assessed for mortality, anti-feedant effect, and growth inhibition in comparison to untreated samples 3 days after infestation. Control of Spodoptera littoralis by a test sample is when at least one of mortality, anti-feedant effect, and growth inhibition is higher than the untreated sample. The following compounds gave an effect of at least 80% control in at least one of the three categories (mortality, anti-feedancy or growth inhibition) at an application rate of 200 ppm: P1.2, P1.3, P1.6, P1.7, P1.8, P1.9, P1.10, P1.12, P1.13, P1.14, P1.15, P1.16, P1.17 and P1.18.

[5] = tested on: Myzus persicae (green peach aphid); test: Activity against Myzus persicae, sunflower leaf disc spray (Example B5); conditions: foliar, 144 h, mixed-age aphid population on sunflower leaf discs, 6 days after infestation
Protocol: Example B5: Activity Against Myzus persicae (Green Peach Aphid)
Sunflower leaf discs were placed on agar in a 24-well microtiter plate and sprayed with aqueous test solutions prepared from 10′000 ppm DMSO stock solutions. After drying, the leaf discs were infested with an aphid population of mixed ages. The samples were assessed for mortality 6 days after infestation.

[6] = tested on: Euschistus heros (neotropical brown stink bug); test: Activity against Euschistus heros, soybean leaf spray (Example B7); conditions: 120 h, N-2 nymphs on soybean leaf, 5 days after infestation
Protocol: Example B7: Activity Against Euschistus heros (Neotropical Brown Stink Bug)
Soybean leaf on agar in 24-well microtiter plates were sprayed with aqueous test solutions prepared from 10′000 ppm DMSO stock solutions. After drying the leaf were infested with N-2 nymphs. The samples were assessed for mortality 5 days after infestation.

Structure (SMILES): CCS(=O)(=O)c1cc(C(F)(F)F)ccc1-n1cc(-c2ccc(C(F)(F)F)nc2)cn1 [Compound P1.14]
- control of Anopheles stephensi [1]: at least 80%
- percent effect (mortality or growth inhibition) at 200 ppm [2]: ≥ 80%
- percent effect (mortality or growth inhibition) at 200 ppm [3]: ≥ 80%
- percent control (mortality, anti-feedant effect or growth inhibition) at 200 ppm [4]: ≥ 80%
- mortality at 200 ppm [5]: ≥ 80%
- mortality at 200 ppm [6]: ≥ 80%

From US20170355691A1, “PESTICIDALLY ACTIVE HETEROCYCLIC DERIVATIVES WITH SULPHUR CONTAINING SUBSTITUENTS” (Syngenta Participations AG, priority 2015, published 2017)
